From PMC9452538, “The antimicrobial peptide LI14 combats multidrug-resistant bacterial infections” (Communications Biology, 2022)
In brackets after ≈: the same amount, converted by molar mass.

Columns and labels:
MRSA T144 = assay: microbe, parasite or virus in culture; assay type: cell-based, Staphylococcus aureus; conditions: Staphylococcus aureus; MRSA T144; MHB, 16-18 h, 37 °C; read-out: MIC
In short: (§1)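 Bacteria are grown to exponential phase, diluted 1:1000 in MHB, then combined at 1.5 × 10^6 CFUs/mL with different peptide concentrations. MICs follow standard CLSI2021 broth micro-dilution.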

S. aureus ATCC 29213 = assay: microbe, parasite or virus in culture; assay type: cell-based, Staphylococcus aureus; conditions: Staphylococcus aureus, ATCC29213
In short: as §1

MRSA 1518 = assay: microbe, parasite or virus in culture; assay type: cell-based, Staphylococcus aureus; conditions: Staphylococcus aureus; MRSA 1518; MHB, 16-18 h, 37 °C; read-out: MIC
Method: (§2) An antimicrobial activity study was conducted on all peptides against a panel of laboratory bacteria, including ATCC source and clinical isolates with resistance determinants. According to CLSI2021 guidelines, we tested the minimum inhibitory concentrations (MICs) of peptides using standard broth micro-dilutions. Briefly, bacteria grown to exponential phase were diluted in 1:1000 to MHB, subsequently, equivalent amounts of bacterial suspension (1.5 × 10^6 CFUs/mL) were mixed with different concentrations of peptides in a sterilized 96-well microtiter plate (Corning).

MRSA 1530 = assay: microbe, parasite or virus in culture; assay type: cell-based, Staphylococcus aureus; conditions: Staphylococcus aureus; MRSA 1530; MHB, 16-18 h, 37 °C; read-out: MIC
Method: as §2

[1] = system: S. aureus 215 (cfr + LZD^R); assay: MIC broth microdilution; assay type: cell-based, Staphylococcus aureus; conditions: Staphylococcus aureus
Method: as §2

S. aureus G16 (RIF^R) = assay: MIC broth microdilution; assay type: cell-based, Staphylococcus aureus; conditions: Staphylococcus aureus
Method: as §2

E. faecalis 1F-1 = assay: microbe, parasite or virus in culture; assay type: cell-based; conditions: Enterococcus faecalis, 1F1; E. faecalis 1F-1; MHB, 16-18 h, 37 °C; read-out: MIC
Method: as §2

[2] = system: E. faecalis A4 (VRE, VanA); assay: microbe, parasite or virus in culture; assay type: cell-based; conditions: Enterococcus faecalis, VRE
Method: as §2

[3] = system: S. enteritidis ATCC 13076; assay: microbe, parasite or virus in culture; assay type: cell-based; conditions: Salmonella enterica
Method: as §2

E. faecium 5F-10 = assay: microbe, parasite or virus in culture; assay type: cell-based, Enterococcus faecium; conditions: Enterococcus faecium, 5F10
Method: as §2

E. coli ATCC 25922 = assay: microbe, parasite or virus in culture; assay type: cell-based, Escherichia coli; conditions: Escherichia coli, ATCC25922
In short: as §1

[4] = system: E. coli B2 (blaNDM-5 + mcr-1); assay: microbe, parasite or virus in culture; assay type: cell-based, Escherichia coli; conditions: Escherichia coli; E. coli B2 (blaNDM-5 + mcr-1); MHB, 16-18 h, 37 °C; read-out: MIC
In short: as §1

E. coli 1F28 (tet(X4)) = assay: microbe, parasite or virus in culture; assay type: cell-based, Escherichia coli; conditions: Escherichia coli; E. coli 1F28 (tet(X4)); MHB, 16-18 h, 37 °C; read-out: MIC
Method: as §2

E. coli B3-1 (tet(X4)) = assay: microbe, parasite or virus in culture; assay type: cell-based, Escherichia coli; conditions: Escherichia coli; E. coli B3-1 (tet(X4)); MHB, 16-18 h, 37 °C; read-out: MIC
Method: as §2

E. coli C3 (blaNDM-1) = assay: microbe, parasite or virus in culture; assay type: cell-based, Escherichia coli; conditions: Escherichia coli; E. coli C3 (blaNDM-1); MHB, 16-18 h, 37 °C; read-out: MIC
Method: as §2

E. coli CP131 (mcr-3) = assay: microbe, parasite or virus in culture; assay type: cell-based, Escherichia coli; conditions: Escherichia coli; E. coli CP131 (mcr-3); MHB, 16-18 h, 37 °C; read-out: MIC
Method: as §2

E. coli G6 (blaNDM-5) = assay: microbe, parasite or virus in culture; assay type: cell-based, Escherichia coli; conditions: Escherichia coli; E. coli G6 (blaNDM-5); MHB, 16-18 h, 37 °C; read-out: MIC
Method: as §2

E. coli G92 (mcr-1) = assay: microbe, parasite or virus in culture; assay type: cell-based, Escherichia coli; conditions: Escherichia coli; E. coli G92 (mcr-1); MHB, 16-18 h, 37 °C; read-out: MIC
Method: as §2

A. baumannii ATCC 19609 = assay: microbe, parasite or virus in culture; assay type: cell-based, Acinetobacter baumannii; conditions: Acinetobacter baumannii, ATCC19609; A. baumannii ATCC 19609; MHB, 16-18 h, 37 °C; read-out: MIC
Method: as §2

[5] = system: A. baumannii C222 (tet(X6)); assay: microbe, parasite or virus in culture; assay type: cell-based, Acinetobacter baumannii; conditions: Acinetobacter baumannii; A. baumannii C222 (tet(X6)); MHB, 16-18 h, 37 °C; read-out: MIC
Method: as §2

P. aeruginosa PA14 = assay: microbe, parasite or virus in culture; assay type: cell-based, Pseudomonas aeruginosa; conditions: Pseudomonas aeruginosa, PA14
Method: as §2

[6] = system: K. pneumoniae ATCC 700603; assay: microbe, parasite or virus in culture; assay type: cell-based, Klebsiella pneumoniae; conditions: Klebsiella pneumoniae, ATCC700603; K. pneumoniae ATCC 700603; MHB, 16-18 h, 37 °C; read-out: MIC
Method: as §2

[7] = system: K. pneumoniae D120 (mcr-8); assay: microbe, parasite or virus in culture; assay type: cell-based, Klebsiella pneumoniae; conditions: Klebsiella pneumoniae; K. pneumoniae D120 (mcr-8); MHB, 16-18 h, 37 °C; read-out: MIC
Method: as §2

[8] = system: P. cibarius HNCF44W (blaNDM-1 + tet(X6)); assay: organism not typed; assay type: cell-based; conditions: P. cibarius HNCF44W (blaNDM-1 + tet(X6)); MHB, 16-18 h, 37 °C; read-out: MIC
Method: as §2

E. coli DH5α (PUC19) = assay: MIC broth microdilution; assay type: cell-based, Escherichia coli; conditions: Escherichia coli; engineered E. coli DH5α (PUC19); MHB, 16-18 h, 37 °C; read-out: MIC
Method: as §2

[9] = system: E. coli DH5α (PUC19-mcr-1); assay: MIC broth microdilution; assay type: cell-based, Escherichia coli; conditions: Escherichia coli
Method: as §2

[10] = system: E. coli DH5α (PUC19-blaNDM-1); assay: MIC broth microdilution; assay type: cell-based; conditions: Escherichia coli
Method: as §2

[11] = system: E. coli DH5α (PUC19-blaNDM-5); assay: MIC broth microdilution; assay type: cell-based; conditions: Escherichia coli
Method: as §2

[12] = system: E. coli DH5α (PUC19-blaNDM-9); assay: MIC broth microdilution; assay type: cell-based; conditions: Escherichia coli
Method: as §2

[13] = system: E. coli DH5α (PUC19-tet(X4)); assay: MIC broth microdilution; assay type: cell-based; conditions: Escherichia coli
Method: as §2

[14] = system: sensitive E. coli ATCC 25922; assay: Checkerboard assay with LI14; assay type: cell-based, Escherichia coli
[15] = system: tigecycline-resistant E. coli B3-1; assay: Checkerboard assay with LI14; assay type: cell-based, Escherichia coli
[16] = antibiotic in combination with LI14, checkerboard
[17] = in the presence of ¼ MIC of LI14

## CN(C)c1cc(NC(=O)CNC(C)(C)C)c(O)c2c1C[C@H]1C[C@H]3[C@H](N(C)C)C(O)=C(C(N)=O)C(=O)[C@@]3(O)C(O)=C1C2=O [Tigecycline]
MRSA T144
  MIC: 0.25 µg/mL (≈ 0.427 µM)
S. aureus ATCC 29213
  MIC: 0.125 µg/mL (≈ 0.213 µM)
MRSA 1518
  MIC: 0.25 µg/mL (≈ 0.427 µM)
MRSA 1530
  MIC: 1 µg/mL (≈ 1.71 µM)
[1]
  MIC: 0.25 µg/mL (≈ 0.427 µM)
S. aureus G16 (RIF^R)
  MIC: < 0.0625 µg/mL
E. faecalis 1F-1
  MIC: 16 µg/mL (≈ 27.3 µM)
[2]
  MIC: < 0.0625 µg/mL
[3]
  MIC: 0.125 µg/mL (≈ 0.213 µM)
E. faecium 5F-10
  MIC: < 0.0625 µg/mL
E. coli ATCC 25922
  MIC: 0.125 µg/mL (≈ 0.213 µM)
[4]
  MIC: 2 µg/mL
E. coli 1F28 (tet(X4))
  MIC: 16 µg/mL (≈ 27.3 µM)
E. coli B3-1 (tet(X4))
  MIC: 32 µg/mL (≈ 54.6 µM)
E. coli C3 (blaNDM-1)
  MIC: 2 µg/mL (≈ 3.41 µM)
E. coli CP131 (mcr-3)
  MIC: 2 µg/mL (≈ 3.41 µM)
E. coli G6 (blaNDM-5)
  MIC: 2 µg/mL (≈ 3.41 µM)
E. coli G92 (mcr-1)
  MIC: 4 µg/mL (≈ 6.83 µM)
A. baumannii ATCC 19609
  MIC: 0.25 µg/mL (≈ 0.427 µM)
[5]
  MIC: 64 µg/mL (≈ 109 µM)
P. aeruginosa PA14
  MIC: < 0.0625 µg/mL
[6]
  MIC: 0.5 µg/mL (≈ 0.854 µM)
[7]
  MIC: 0.25 µg/mL (≈ 0.427 µM)
[8]
  MIC: 64 µg/mL
E. coli DH5α (PUC19)
  MIC: 1 µg/mL (≈ 1.71 µM)
[9]
  MIC: 1 µg/mL (≈ 1.71 µM)
[10]
  MIC: 1 µg/mL (≈ 1.71 µM)
[11]
  MIC: 1 µg/mL (≈ 1.71 µM)
[12]
  MIC: 1 µg/mL (≈ 1.71 µM)
[13]
  MIC: 64 µg/mL (≈ 109 µM)
[14]; [16]
  FIC index: 0.5
[14]; in the absence of LI14
  MICa of antibiotic: 0.063 µg/mL
[14]; [17]
  MICb of antibiotic: 0.016 µg/mL
  Potentiation: 4 fold
[15]; [16]
  FIC index: 0.125
[15]; in the absence of LI14
  MICa of antibiotic: 32 µg/mL
[15]; [17]
  MICb of antibiotic: 2 µg/mL
  Potentiation: 16 fold
